The values below come from patent US6756387B2, “Hydroxyphenyl-piperidin-4-ylidene-methyl-benzamide derivatives for the treatment of pain” (AstraZeneca AB, priority 2000, dated 2004).

Common to all, as to format: biochemical
Assay [1] has as its target T1, cloned human δ receptor (HDELTA) (Homo sapiens, UniProt P41143).
T1 construct: expressed in transfected cells; host or cells: human 293S (HEK-293S) cells, geneticin-selected
Put plainly: GTP[γ]35S binding functional assay, membranes from HEK-293S cells expressing cloned human opioid receptors. The note with it: HEK-293S membranes, read-out: HDELTA % E Max. As for the experimental part:
A. Human 293S cells expressing cloned human μ, δ, and κ receptors and neomycin resistance were grown in suspension at 37° C. and 5% CO2 in shaker flasks containing calcium-free DMEM10% FBS, 5% BCS, 0.1% Pluronic F-68, and 600 μg/ml geneticin.
Cells were pelleted and resuspended in lysis buffer (50 mM Tris, pH 7.0, 2.5 mM EDTA, with PMSF added just prior to use to 0.1 mM from a 0.1 M stock in ethanol), incubated on ice for 15 min, then homogenized with a polytron for 30 sec. The suspension was spun at 1,000 g (max) for 10 min at 4° C. The supernatant was saved on ice and the pellets resuspended and spun as before. The supernatants from both spins were combined and spun at 46,000 g(max) for 30 min. The pellets were resuspended in cold Tris buffer (50 mM Tris/Cl, pH 7.0) and spun again. The final pellets were resuspended in membrane buffer (50 mM Tris, 0.32 M sucrose, pH 7.0). Aliquots (1 ml) in polypropylene tubes were frozen in dry ice/ethanol and stored at −70° C. until use. The protein concentrations were determined by a modified Lowry assay with SDS.
(§1) The agonist activity of the compounds is measured by determining the degree to which the compounds receptor complex activates the binding of GTP to G-proteins to which the receptors are coupled. In the GTP binding assay, GTP[γ]^35S is combined with test compounds and membranes from HEK-293S cells expressing the cloned human opioid receptors or from homogenised rat and mouse brain. Agonists stimulate GTP[γ]^35S binding in these membranes. The EC50 and Emax values of compounds are determined from dose-response curves. Right shifts of the dose response curve by the delta antagonist naltrindole are performed to verify that agonist activity is mediated through delta receptors.
In general terms: GTPγS is a poorly hydrolysed GTP analogue; its binding reports G protein activation.

Assay [2] addresses T2, delta receptors, rat brain membranes (Rattus norvegicus, UniProt P33533).
T2 construct: from tissue; host or cells: rat brain homogenate
Put plainly: GTP[γ]35S binding functional assay, homogenised rat brain. The note with it: rat brain homogenate, read-out: RAT BRAIN % E Max. How it is done:
(§2) B. Mouse and rat brains were weighed and rinsed in ice-cold PBS (containing 2.5 mM EDTA, pH 7.4). The brains were homogenized with a polytron for 15 sec (mouse) or 30 sec (rat) in ice-cold lysis buffer (50 mM Tris, pH 7.0, 2.5 mM EDTA, with phenylmethylsulfonyl fluoride added just prior use to […] from a 0.5M stock in DMSO:ethanol).
as §1

Assay [3] addresses T3, delta receptors, mouse brain membranes (Mus musculus, UniProt P32300).
T3 construct: from tissue; host or cells: mouse brain homogenate
Description: GTP[γ]35S binding functional assay, homogenised mouse brain. The following applies: mouse brain homogenate, read-out: MOUSE BRAIN % E Max. How it is done: as §2, §1

T2 sequence (P33533 whole entry): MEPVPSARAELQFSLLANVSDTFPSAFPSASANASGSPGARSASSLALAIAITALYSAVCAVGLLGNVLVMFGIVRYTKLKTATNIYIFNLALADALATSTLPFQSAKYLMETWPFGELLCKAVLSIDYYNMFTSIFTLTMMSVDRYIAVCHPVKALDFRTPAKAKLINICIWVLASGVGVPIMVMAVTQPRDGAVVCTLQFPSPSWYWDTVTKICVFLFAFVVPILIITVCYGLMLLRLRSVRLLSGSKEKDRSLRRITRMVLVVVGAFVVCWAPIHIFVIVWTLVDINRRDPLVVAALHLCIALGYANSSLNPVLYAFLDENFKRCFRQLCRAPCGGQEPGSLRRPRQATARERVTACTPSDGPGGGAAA
T1 sequence (P41143 whole entry): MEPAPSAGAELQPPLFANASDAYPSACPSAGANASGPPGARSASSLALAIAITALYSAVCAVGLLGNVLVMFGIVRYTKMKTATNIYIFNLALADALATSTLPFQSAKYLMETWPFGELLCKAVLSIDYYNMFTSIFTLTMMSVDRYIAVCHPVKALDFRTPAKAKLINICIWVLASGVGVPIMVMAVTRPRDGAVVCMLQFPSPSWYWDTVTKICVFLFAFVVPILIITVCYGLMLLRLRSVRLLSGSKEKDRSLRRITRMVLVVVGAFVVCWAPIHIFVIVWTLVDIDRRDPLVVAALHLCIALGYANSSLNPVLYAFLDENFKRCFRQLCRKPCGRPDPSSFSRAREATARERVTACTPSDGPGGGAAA
T3 sequence (P32300 whole entry): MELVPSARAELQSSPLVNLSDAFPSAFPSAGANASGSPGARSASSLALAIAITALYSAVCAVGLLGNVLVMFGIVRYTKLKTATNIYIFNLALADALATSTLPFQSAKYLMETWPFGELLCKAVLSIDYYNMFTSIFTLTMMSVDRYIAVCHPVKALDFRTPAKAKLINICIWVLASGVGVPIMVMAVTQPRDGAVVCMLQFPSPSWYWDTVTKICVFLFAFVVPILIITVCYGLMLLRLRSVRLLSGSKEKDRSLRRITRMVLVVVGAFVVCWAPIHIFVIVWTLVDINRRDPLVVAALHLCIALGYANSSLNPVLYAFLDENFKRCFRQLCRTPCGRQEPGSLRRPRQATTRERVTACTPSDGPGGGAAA

For `CCN(CC)C(=O)c1ccc(C(=C2CCN(Cc3ccccc3)CC2)c2cccc(O)c2)cc1` [Example 2, N,N-diethyl-4-(3-hydroxylphenyl-N-benzyl-piperidin-4-ylidene-methyl)-benzamide], the Emax in assay [1] was 104%; in assay [2], 112%; in assay [3], 104%.
Consider `CCN(CC)C(=O)c1ccc(C(=C2CCN(Cc3cccs3)CC2)c2cccc(O)c2)cc1` [Example 3, N,N-diethyl-4-{(3-hydroxyphenyl)[1-(2-thienylmethyl)-4-piperidinylidene]methyl}benzamide], for which the Emax is 98.2% in assay [1], 168% in assay [2] and 186% in assay [3].
With `CCN(CC)C(=O)c1ccc(C(=C2CCN(Cc3ccco3)CC2)c2cccc(O)c2)cc1` [Example 5, N,N-diethyl-4-[[1-(2-furylmethyl)-4-piperidinylidene](3-hydroxyphenyl)methyl]benzamide], the results for the Emax in assay [1], in assay [2] and in assay [3] were 94.8%, 132% and 134%, respectively.
In the same order, the values of `CCN(CC)C(=O)c1ccc(C(=C2CCN(Cc3ccccn3)CC2)c2cccc(O)c2)cc1` [Example 7, N,N-diethyl-4-{(3-hydroxyphenyl)[1-(2-pyridinylmethyl)-4-piperidinylidene]methyl}benzamide] are 103%, 135% and 138%.
In the same order, the values of `CCN(CC)C(=O)c1ccc(C(=C2CCN(Cc3ccncc3)CC2)c2cccc(O)c2)cc1` [Example 8, N,N-diethyl-4-{(3-hydroxyphenyl)[1-(4-pyridinylmethyl)-4-piperidinylidene]methyl}benzamide] are 112%, 81.4% and 78.2%.
In the same order, the values of `CCN(CC)C(=O)c1ccc(C(=C2CCN(Cc3ncc[nH]3)CC2)c2cccc(O)c2)cc1` [Example 9, N,N-diethyl-4-{(3-hydroxyphenyl)[1-(1H-imidazol-2-ylmethyl)-4-piperidinylidene]methyl}benzamide] are 106%, 151% and 136%.
As to `CCN(CC)C(=O)c1ccc(C(=C2CCN(Cc3c[nH]cn3)CC2)c2cccc(O)c2)cc1` [Example 10, N,N-diethyl-4-{(3-hydroxyphenyl)[1-(1H-imidazol-4-ylmethyl)-4-piperidinylidene]methyl}benzamide], the Emax is 107% in assay [1], 102% in assay [2] and 104% in assay [3].
For `CCN(CC)C(=O)c1ccc(C(=C2CCN(Cc3nccs3)CC2)c2cccc(O)c2)cc1` [Example 11, N,N-diethyl-4-{(3-hydroxyphenyl)[1-(1,3-thiazol-2-ylmethyl)-4-piperidinylidene]methyl}benzamide], in that order: 115%, 120% and 118%.
